Source: patent US7732449B2, “Inhibitors of cathepsin S” (IRM LLC, priority 2003, dated 2010)
Where two headings read alike, the source gives them in different places.

Assays:
Format in all cases: biochemical
Cathepsin L = Cathepsin L (Homo sapiens, UniProt P07711); assay: Cathepsin L inhibition, fluorogenic peptide substrate kinetic assay (selectivity); settings: ratio of cathepsin L inhibition constant to cathepsin S inhibition constant
Cathepsin B = Cathepsin B (Homo sapiens, UniProt P07858); assay: Cathepsin B inhibition, fluorogenic peptide substrate kinetic assay (selectivity); settings: ratio of cathepsin B inhibition constant to cathepsin S inhibition constant;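 note: value is the cathepsin B inhibition constant divided by the cathepsin S one, each from kinetic fluorescence readings (ex 380 nm, em 450 nm) of a 10 µM coumarin peptide substrate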
Cathepsin S = Cathepsin S (Homo sapiens, UniProt P25774); assay: Cathepsin S inhibition, fluorogenic peptide substrate kinetic assay;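 note: cleavage rate of a coumarin-labelled peptide substrate (50 µM) read as fluorescence increase at Ex 380 nm and Em 450 nm, relative to inhibitor-free control reactions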
Cathepsin K = target: T1, Cathepsin K (Homo sapiens, UniProt P43235); assay: Cathepsin K inhibition, fluorogenic peptide substrate kinetic assay (selectivity); settings: ratio of cathepsin K inhibition constant to cathepsin S inhibition constant
T1 sequence (P43235 115-329): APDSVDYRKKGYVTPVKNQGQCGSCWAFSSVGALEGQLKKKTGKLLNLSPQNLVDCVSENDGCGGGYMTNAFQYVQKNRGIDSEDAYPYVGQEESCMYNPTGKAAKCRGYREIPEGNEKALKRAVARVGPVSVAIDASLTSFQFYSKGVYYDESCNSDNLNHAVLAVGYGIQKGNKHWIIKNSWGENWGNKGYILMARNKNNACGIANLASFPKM

[1] = Cathepsin S inhibition constant, pH5.5, 20 minutes preincubation at room temperature, read-out: Ki Cat. S

Sequence of Cathepsin S (P25774 115-331, species assumed): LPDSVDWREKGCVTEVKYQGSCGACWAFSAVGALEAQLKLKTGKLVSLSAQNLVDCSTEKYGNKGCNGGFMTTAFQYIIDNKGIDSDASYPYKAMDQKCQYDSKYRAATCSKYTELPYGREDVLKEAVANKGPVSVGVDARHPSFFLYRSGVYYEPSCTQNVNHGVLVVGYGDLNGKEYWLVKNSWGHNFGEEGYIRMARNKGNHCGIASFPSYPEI
Sequence of Cathepsin L (P07711 114-333, species assumed): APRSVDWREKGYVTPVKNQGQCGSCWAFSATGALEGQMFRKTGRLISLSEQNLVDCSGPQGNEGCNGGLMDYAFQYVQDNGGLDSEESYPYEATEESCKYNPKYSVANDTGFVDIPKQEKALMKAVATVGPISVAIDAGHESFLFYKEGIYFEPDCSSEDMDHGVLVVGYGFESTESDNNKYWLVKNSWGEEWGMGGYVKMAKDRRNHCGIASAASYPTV

| SMILES | Selectivity for Cat. S over Cat. L (Cathepsin L) | Selectivity for Cat. S over Cat. B (Cathepsin B) | Ki (Cathepsin S; [1]) | Selectivity for Cat. S over Cat. K (Cathepsin K) | Ki (Cathepsin S) |
| --- | --- | --- | --- | --- | --- |
| C[C@@H](CN1CC(C)(C)c2cc(F)ccc21)NC(=O)[C@@H](CC(=O)N1CCOCC1)CC1CCCCC1 [Example 54, 2-(R)-Cyclohexylmethyl-N-[2-(5-fluoro-3,3-dimethyl-2,3-dihydro-indol-1-yl)-1-(S)-methyl-ethyl]-4-morpholin-4-yl-4-oxo-butyramide] | ++ (++, >100) | +++ (+++, >1000) | < 100 nM | +++ (+++, >1000) |  |
| C[C@@H](CNc1ccc(OC(F)(F)F)cc1)NC(=O)[C@H](CC1CCCC1)[C@@H](C)C(=O)N1CCOCC1 [Example 16, 2-(R)-Cyclopentylmethyl-3-(R)-methyl-N-[1-(S)-methyl-2-(4-trifluoromethoxy-phenylamino)-ethyl]-4-morpholin-4-yl-4-oxo-butyramide] | + (+, >10) | ++ (++, >100) | 100 to 1000 nM | + (+, >10) |  |
| COc1ccc(NC[C@H](C)NC(=O)[C@H](CC2CCCCC2)NC(=O)N2CCOCC2)cc1 [Example 72, (S,S)-Morpholine-4-carboxylic acid {2-cyclohexyl-1-[2-(4-methoxy-phenylamino)-1-methyl-ethylcarbamoyl]-ethyl}-amide] | + (+, >10) | ++ (++, >100) | < 100 nM | ++ (++, >100) |  |
| C[C@@H](CN1CCc2cc(F)ccc21)NC(=O)[C@@H](CC(=O)N1CCOCC1)CC1CCCCC1 [Example 8, 2-(R)-Cyclohexylmethyl-N-[2-(5-fluoro-2,3-dihydro-indol-1-yl)-1-(S)-methyl-ethyl]-4-morpholin-4-yl-4-oxo-butyramide] | ++ (++, >100) | +++ (+++, >1000) | < 100 nM | ++ (++, >100) |  |
| C[C@@H](CN1CCc2cc(F)ccc21)NC(=O)[C@H](CC1CCCCC1)OC(=O)N1CCOCC1 [Example 12, Morpholine-4-carboxylic acid 2-cyclohexyl-1-(S)-[2-(5-fluoro-2,3-dihydro-indol-1-yl)-1-(S)-methyl-ethylcarbamoyl]-ethyl ester] | + (+, >10) | ++ (++, >100) | 100 to 1000 nM | + (+, >10) |  |
| CCC[C@@H](CNc1ccc(OC(F)(F)F)cc1)NC(=O)[C@@H](CC(=O)N1CCOCC1)CC1CCCCC1 [Example 20, 2-(R)-Cyclohexylmethyl-4-morpholin-4-yl-4-oxo-N-{1-(S)-[(4-trifluoromethoxy-phenylamino)-methyl]-butyl}-butyramide] | + (+, >10) | +++ (+++, >1000) |  | + (+, >10) | < 100 nM |
| C=CC[C@H](CC(=O)N1CCOCC1)C(=O)N[C@H](CNc1ccc(OC(F)(F)F)cc1)C(C)C [Example 47, 2-(R)-(2-Morpholin-4-yl-2-oxo-ethyl)-pent-4-enoic acid {2-methyl-1-(S)-[(4-trifluoromethoxy-phenylamino)-methyl]-propyl}-amide] | + (+, >10) | + (+, >10) | 100 to 1000 nM |  |  |
| CC(C)[C@@H](CNc1ccc(OC(F)(F)F)cc1)NC(=O)[C@H](CC(=O)N1CCOCC1)c1ccc(S(C)(=O)=O)cc1 [Example 71, 2-(R)-(4-methanesulfonyl-phenyl)-N-{2-methyl-1-(S)-[(4-trifluoromethoxy-phenylamino)-methyl]-propyl}-4-morpholin-4-yl-4-oxo-butyramide] | ++ (++, >100) | + (+, >10) | 1000 to 10000 nM |  |  |
| C[C@@H]1CN(C(=O)C[C@@H](CC2CCCCC2)C(=O)N[C@@H](C)CNc2ccc(OC(F)(F)F)cc2)C[C@H](C)O1 [Example 50, 2-(R)-Cyclohexylmethyl-4-(cis-2,6-dimethyl-morpholin-4-yl)-N-[1-(S)-methyl-2-(4-trifluoromethoxy-phenylamino)-ethyl]-4-oxo-butyramide] |  | +++ (+++, >1000) | < 100 nM | ++ (++, >100) |  |
| O=C(N[C@H](CN1CC2(CC2)c2cc(F)ccc21)C1CC1)[C@H](CC1CCCCC1)NC(=O)N1CCOCC1 [Example 82, Morpholine-4-carboxylic acid {2-cyclohexyl-1-(S)-[1-(S)-cyclopropyl-2-(5-fluoro-3,3-spirocyclopropyl-2,3-dihydro-indol-1-yl)-ethylcarbamoyl]-ethyl}-amide] |  | ++ (++, >100) | < 100 nM | ++ (++, >100) |  |

Results, then the compound that gave them:

| Selectivity for Cat. S over Cat. L (Cathepsin L) | Selectivity for Cat. S over Cat. B (Cathepsin B) | Ki (Cathepsin S; [1]) | Selectivity for Cat. S over Cat. K (Cathepsin K) | Ki (Cathepsin S) | SMILES |
| --- | --- | --- | --- | --- | --- |
| ++ (++, >100) | +++ (+++, >1000) |  | ++ (++, >100) | < 100 nM | C[C@@H](CNc1ccc(OC(F)(F)F)cc1)NC(=O)[C@@H](CC(=O)N1CCOCC1)CC1CCCCC1 [Example 14, 2-(R)-Cyclohexylmethyl-N-[1-(S)-methyl-2-(4-trifluoromethoxy-phenylamino)-ethyl]-4-morpholin-4-yl-4-oxo-butyramide] |
| ++ (++, >100) | ++ (++, >100) | < 100 nM | +++ (+++, >1000) |  | C[C@@H](CNc1ccc(OC(F)(F)F)cc1)NC(=O)[C@H](CS(=O)(=O)Cc1ccccc1)NC(=O)N1CCOCC1 [Example 18, Morpholine-4-carboxylic acid {1-(R)-[1-(S)-methyl-2-(4-trifluoromethoxy-phenylamino)-ethylcarbamoyl]-2-phenylmethanesulfonyl-ethyl}-amide] |
| ++ (++, >100) | ++ (++, >100) |  |  | 100 to 1000 nM | C[C@@H](CNc1ccc(OC(F)(F)F)cc1)NC(=O)[C@@H](CC(=O)N1CCOCC1)CC(C)(C)C [Example 26, 4,4-Dimethyl-2-(R)-(2-morpholin-4-yl-2-oxo-ethyl)-pentanoic acid [1-(S)-methyl-2-(4-trifluoromethoxy-phenylamino)-ethyl]-amide] |
| + (+, >10) | +++ (+++, >1000) |  |  | < 100 nM | CC(C)[C@@H](CNc1ccc(OC(F)(F)F)cc1)NC(=O)[C@H](CCc1ccccc1)CC(=O)N1CCOCC1 [Example 32, N-{2-Methyl-1-(S)-[(4-trifluoromethoxy-phenylamino)-methyl]-propyl}-4-morpholin-4-yl-4-oxo-2-(R)-phenethyl-butyramide] |
| + (+, >10) | + (+, >10) | 1000 to 10000 nM |  |  | C[C@@H](CNc1ccc(OC(F)F)cc1)NC(=O)O[C@@H](CC(C)(C)C)C(=O)N1CCOCC1 [Example 85, [2-(4-Difluoromethoxy-phenylamino)-1-(S)-methyl-ethyl]-carbamic acid 3,3-dimethyl-1-(S)-(morpholine-4-carbonyl)-butyl ester] |
| + (+, >10) | + (+, >10) | 1000 to 10000 nM |  |  | CC(C)[C@@H](CN1CC(C)(C)c2cc(F)ccc21)NC(=O)OC(C(=O)N1CCOCC1)c1ccccc1 (mixture of isomers) [Example 109, [1-(S)-(5-Fluoro-3,3-dimethyl-2,3-dihydro-indol-1-ylmethyl)-2-methyl-propyl]-carbamic acid 2-morpholin-4-yl-2-oxo-1-(R,S)-phenyl-ethyl ester] |
